# Counter-ions that a name gives are not always drawn.
# Molecular target: T1, human CMR-1 (Homo sapiens, UniProt Q7Z2W7)
# T1 construct: expressed in transfected cells
# Assay: Measurement of the menthol-induced Ca2+ influx in HEK293 cells expressing CMR-1 receptor (Assay 1)
# Assay type: cell-based
# Settings: HEK293 cells stably expressing human CMR-1; preincubation with compound, menthol stimulation; fluo4-AM fluorescence
# Text: Measurement of the Menthol-Induced Ca^2+ Influx in […] Cell Expressing CMR-1 Receptor (Assay 1).
# A cell-based calcium influx assay using HEK293 cells stably expressing human CMR-1 is used to identify CMR-1 receptor-antagonists. Menthol, a CMR-1 specific agonist, is used for stimulation of these cells, inducing an increase in intracellular calcium. This menthol-induced Ca^2+ increase is traced by fluorescence measurement. Therefore the cells are loaded with fluo4-AM prior to stimulation. For testing inhibitors the cells are preincubated with various concentrations of the compound before menthol stimulation. The potency of potential CMR-1 inhibitors is quantified by measuring decrease of fluorescence.
# T1 sequence (Q7Z2W7 whole entry): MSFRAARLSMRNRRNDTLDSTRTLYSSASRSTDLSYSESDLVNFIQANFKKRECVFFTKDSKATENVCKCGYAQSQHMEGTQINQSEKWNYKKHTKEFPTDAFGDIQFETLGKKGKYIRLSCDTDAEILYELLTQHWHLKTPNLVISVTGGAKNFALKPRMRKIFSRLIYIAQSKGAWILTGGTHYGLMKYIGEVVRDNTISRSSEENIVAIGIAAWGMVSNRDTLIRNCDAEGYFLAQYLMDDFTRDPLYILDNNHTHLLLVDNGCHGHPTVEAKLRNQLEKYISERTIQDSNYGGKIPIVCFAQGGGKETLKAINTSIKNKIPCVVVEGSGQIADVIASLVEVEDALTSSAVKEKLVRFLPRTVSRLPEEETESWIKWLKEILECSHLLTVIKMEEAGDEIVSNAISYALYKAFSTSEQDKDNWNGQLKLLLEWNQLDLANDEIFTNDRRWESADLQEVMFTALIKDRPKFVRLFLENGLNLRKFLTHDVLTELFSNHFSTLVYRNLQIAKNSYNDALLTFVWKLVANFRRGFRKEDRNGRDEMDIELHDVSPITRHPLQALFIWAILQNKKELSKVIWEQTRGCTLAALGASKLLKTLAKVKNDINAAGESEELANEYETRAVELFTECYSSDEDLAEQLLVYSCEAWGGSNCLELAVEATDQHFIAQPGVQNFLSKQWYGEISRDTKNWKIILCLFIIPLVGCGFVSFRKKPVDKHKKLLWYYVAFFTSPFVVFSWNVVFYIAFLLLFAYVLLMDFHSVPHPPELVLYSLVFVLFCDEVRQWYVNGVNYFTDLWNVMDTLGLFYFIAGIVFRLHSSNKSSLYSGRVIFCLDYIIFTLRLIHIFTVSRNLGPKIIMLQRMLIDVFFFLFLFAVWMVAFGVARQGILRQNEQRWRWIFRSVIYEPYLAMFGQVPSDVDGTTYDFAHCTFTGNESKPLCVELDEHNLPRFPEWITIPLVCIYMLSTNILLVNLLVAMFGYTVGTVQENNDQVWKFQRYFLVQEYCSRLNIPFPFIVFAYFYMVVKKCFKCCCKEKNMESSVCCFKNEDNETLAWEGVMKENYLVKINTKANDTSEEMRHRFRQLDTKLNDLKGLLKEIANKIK
row,SMILES,IC50 [nM]
1,"COc1cc(CN(Cc2ccccc2)C(=O)c2ccccc2)ccc1OCc1ccc(F)cc1 [Example 38, N-benzyl-N-{4-[(4-fluorobenzyl)oxy]-3-methoxybenzyl}benzamide]",40
2,"COc1cc(CN(CCN)C(=O)c2cccs2)ccc1OCc1ccccc1F [Example 17, N-(2-aminoethyl)-N-{4-[(2-fluorobenzyl)oxy]-3-methoxybenzyl}thiophene-2-carboxamide trifluoroacetate]",1
3,COc1cc(CN(CCN)C(=O)CC(C)(C)C)ccc1OCc1ccc(F)cc1F [Example 20],8
4,"COc1cc(CN(CCN)C(=O)c2cccs2)ccc1OCc1ccccc1 [Example 3-1, N-(2-aminoethyl)-N-[4-(benzyloxy)-3-methoxybenzyl]thiophene-2-carboxamide hydrochloride]",1
5,COc1cc(CN(CCCNC(=O)OC(C)(C)C)C(=O)c2cccs2)ccc1OCc1ccc(F)cc1 [Example 10],70
6,"COc1cc(CN(CCN)C(=O)c2ccccc2)ccc1OCc1ccccc1 [Example 4-1, N-(2-aminoethyl)-N-[4-(benzyloxy)-3-methoxybenzyl]benzamide trifluoroacetate]",150
